This note sets out measurements from PubChem BioAssay (NCI).

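Results reflect a 48-hour exposure of cells in 96-well plates to compound at five concentrations. At the GI50, growth is halved. At the TGI there is no net growth.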

Holding throughout (test): DTP human tumour cell line panel, 48 h
Test [1] concerns HOP-62 NSCLC.
In test [2] the test system is MDA-MB-231 breast.
Test [3] has as its system OVCAR-3 ovarian.
In test [4] the test system is NCI-H460 lung.
Test [5] relates to CCRF-CEM leukemia.
Test [6] deals with SF-268 CNS.
Test [7] relates to MALME-3M melanoma.
In test [8] the test system is OVCAR-4 ovarian.
In test [9] the test system is SK-MEL-2 melanoma.
Test [10] has as its system PC-3 prostate.

`COC1CC2C=C(C)/C=C/C=C/C(=O)NC(c3ccccc3)C/C=C/CCC(O)CC(=O)C2=C1O` (centres undefined): the GI50 is 275 nM in [1]; 270 nM in test [2]; 271 nM in test [3]; 240 nM in [4]; 284 nM in test [5]; 365 nM in [6]. For the same compound, the GI50 in test [7] was 214 nM; in test [8], 294 nM; in test [9], 223 nM; in test [10], 289 nM. In addition, the TGI amounted to 1.53 µM in test [1]; 0.961 µM in test [2]; 0.894 µM in [3]; 1.19 µM in [4]; 1300 nM in [5]; 1.51 µM in test [6]. In addition, the TGI amounted to 1.19 µM in test [7], 1.08 µM in [8], 0.6 µM in [9] and 1.16 µM in test [10].
As to `Cc1cc(C)c(C[N+](C)(C)C)c(C)c1C`, the GI50 in test [1] was 323 nM; in test [2], 471 nM; in test [3] it was 638 nM; in [4] it was 367 nM; in test [5] it was 201 nM; in test [6], 364 nM. Moreover, the GI50 in test [7] was 594 nM; in [8], 762 nM; in test [9], 654 nM; in test [10] it was 351 nM. Further, the TGI in test [1] is 7.59 µM; in test [2], 25.8 µM; in test [3], 15.3 µM; in test [4], over 100 µM; in test [5], over 67500 nM; in [6], 10 µM. The concentration for total growth inhibition (TGI) in test [7] was 32.2 µM; in test [8], over 27.1 µM; in [9], 5.04 µM; in [10], over 67.2 µM.
Consider `CC(C)c1ccc(/C(C(=O)O)=C(\O)C(=O)O)cc1`, for which the concentration for total growth inhibition (TGI) in test [1] was over 100 µM; in test [2] it was over 100 µM; in [3] it was over 100 µM; in test [4], over 100 µM; in test [5] it was over 100000 nM; in [6] it was over 100 µM. Further, the TGI in [7], in test [8], in [9] and in test [10] was over 100 µM in each case.
Consider `O=c1[nH]c(=O)n(C2OC(CO)C(O)C2O)c2c1CCCC2` (centres undefined), for which the total growth inhibition concentration (TGI) in test [1] is over 100 µM; in test [2], over 100 µM; in [3] it was over 100 µM; in test [4] it was over 100 µM; in [5], over 100000 nM; in test [6], over 100 µM. Moreover, the TGI in test [7], in test [8], in test [9] and in [10] was over 100 µM in each case.
`OCC1OC(n2ccc3c(NO)ncnc32)C(O)C1O` (centres undefined): the GI50 in test [1] was 219 nM; in test [2], 233 nM; in test [3], 249 nM; in [4], 44 nM; in [5], 159 nM; in test [6], 233 nM. Moreover, the GI50 was 117 nM in test [7], 124 nM in test [8], 155 nM in [9] and 239 nM in test [10]. In addition, the concentration for total growth inhibition (TGI) in [1] was 2.51 µM; in [3], 0.884 µM; in test [4], 4.45 µM; in test [5], 692 nM; in test [6] it was 2.81 µM; in test [7] it was 0.451 µM. The TGI in test [8] turned out to be 1.3 µM; in test [9], 0.429 µM; in [10] it was 1.14 µM.
For `C=C1C(=O)OC2CC1C(O)C/C(C)=C/CC/C(C)=C/C(O)CC2C` (centres undefined), the TGI in test [1] is 25.2 µM; in test [2], 12.4 µM; in test [3] it was 9.2 µM; in test [4], 10.8 µM; in test [5], 1340 nM; in test [6] it was 8.66 µM. Besides, the total growth inhibition concentration (TGI) worked out at 7.61 µM in [7], 11.5 µM in [8], 12.2 µM in test [9] and 13.1 µM in [10].
Regarding `N#Cc1cnc2cc(OC[C@@H](O)CO)c(NC(=O)CC3CSSC3)cc2c1Nc1ccc(OCc2cccc(F)c2)c(Cl)c1`, the GI50 in test [1] is 311 nM; in [2], 104 nM; in test [3] it was 284 nM; in [4], 104 nM; in [5], 60.3 nM; in test [6], 81.4 nM. For the same compound, the 50% growth inhibitory concentration (GI50) is 215 nM in [7], 128 nM in [8], 117 nM in test [9] and 88.8 nM in test [10]. The TGI in [1] amounted to 0.896 µM; in test [2] it was 0.237 µM; in test [3], 0.913 µM; in test [4], 0.261 µM; in test [5], 160 nM; in [6], 0.771 µM. Also, the TGI in test [7] was 0.938 µM; in test [8], 0.381 µM; in test [9] it was 0.286 µM; in [10], 0.198 µM.
For `CN1CCCN(C)C1c1cc([N+](=O)[O-])ccc1O`, the TGI is over 100 µM in test [1]; over 100 µM in test [2]; over 100 µM in [3]; over 100 µM in test [4]; 48500 nM in test [5]; over 100 µM in [6]. Besides, the TGI is 63.7 µM in test [7], over 100 µM in test [8], over 100 µM in test [9] and 72.9 µM in [10].
For the compound `CCOC(=O)C(=Cc1ccccc1[N+](=O)[O-])C(=O)OCC`, the GI50 in test [1] was 3480 nM; in test [2], 2480 nM; in test [3] it was 2650 nM; in test [4], 3250 nM; in [5] it was 3130 nM; in test [6] it was 3350 nM. Besides, the GI50 in test [7] was 3850 nM; in [8], 4680 nM; in test [9] it was 4010 nM; in test [10], 6690 nM. Further, the TGI in test [1] came to 12.9 µM; in test [2], 7.59 µM; in test [3], 6.48 µM; in [4], 10.8 µM; in test [5], 20600 nM; in [6], 11.5 µM. Besides, the TGI was determined as 13.2 µM in test [7], 18.1 µM in test [8], 11.9 µM in test [9] and 34.7 µM in [10].
